Source: patent publication US8013053B2, “Water-based inks for ink-jet printing” (Kao Corporation, priority 2005, dated 2011)

What was measured:
[1] = Surface tension of water containing nonionic organic compound; type: physicochemical; settings: 25° C.; for Surface tension: water containing 0.001% by weight of the nonionic organic compound
Text: (4) Method of Measuring Surface Tension of Water Containing Nonionic Organic Compound

[2] = Solubility of nonionic organic compound in water; type: physicochemical; settings: for solubility in 100 g of water: 25° C.; for Solubility: in 100 g of water at 25° C.
Text: (3) Method of Measuring Solubility of Nonionic Organic Compound

Compound | surface tension of water containing 0.001% by weight of the nonionic organic compound [1] [mN/m] | Surface tension [1] [mN/m] | solubility in 100 g of water [2] [g] | Solubility [2]
CCCCC(CC)COCC(O)CO (stereo not drawn) [2-ethylhexyl monoglyceryl ether] | 62 | 62 | 0.15 | 0.15 g/100 g
CCCCCCCCC(O)CO (stereo not drawn) [1,2-decanediol] | 55 | 55 | 0.055 | 0.055 g/100 g
CCCCCCC(O)CO (stereo not drawn) [1,2-octanediol] | 65 | 65 | 0.20 | 0.2 g/100 g
OCCCCCCCCO [1,8-octanediol, reference compound] | – | 70.7 | – | 1 g/100 g
CCCCCCCCCCC(O)CO (stereo not drawn) [1,2-dodecanediol] | 47.1 | 47.1 | 0.001 | 0.001 g/100 g
CCCCC(O)CO (stereo not drawn) [1,2-hexanediol, reference compound] | – | 71.2 | – | ≧6 g/100 g

The next lines start with the values.

surface tension of water containing 0.001% by weight of the nonionic organic compound [1] [mN/m] | Surface tension [1] [mN/m] | solubility in 100 g of water [2] [g] | Solubility [2] | Compound
63 | 63 | 0.005 | 0.12 g/100 g | Lauric acid monogriceride
57.8 | 57.8 | 0.05 | 0.05 g/100 g | CC(C)CCCCCCCOCC(O)CO (stereo not drawn) [Isodecyl monoglyceryl ether]
65 | 65 | – | – | Decanoic acid monogriceride
